Calls of active or inactive are those of the source. The calls are words filed in the database; no cut-off is given here.
Tests used:
[1] = (§1) Inhibition of Bacillus subtilis RuvA/RuvB protein complex helicase activity expressed in Escherichia coli BL21(DE3) assessed as inhibition of HJ branch migration preincubated for 15 mins followed by substrate addition and measured after 1 hr using 5'-FAM labelled 5'-CACTGTGATGCACGATGATTGACGACAGTAGTCAGTGCTGCAGTGGTCAGGTGTC-3' HJ-a duplex DNA as substrate in presence of ATP by PAGE analysis
Pseudomonas aeruginosa [2] = test: Inhibition of Pseudomonas aeruginosa RuvA expressed in Escherichia coli BL21(DE3) binding to HJ DNA assessed as reduction in RuvA-HJ DNA complex formation at >20 uM and measured after 15 mins using 5'-FAM labelled Holliday junction DNA as substrate by EMSA analysis
[3] = as §1, with “Thermus thermophilus” for “Bacillus subtilis”
Pseudomonas aeruginosa [4] = test: Antimicrobial activity against Pseudomonas aeruginosa ATCC27853 assessed as colony formation at 2 uM preincubated for 1 hr followed by UV-light irradiation for 5 mins then culture on LB-agar plate for overnight by colony counting method; type: functional, organism-based
Pseudomonas aeruginosa [5] = test: Inhibition of Pseudomonas aeruginosa RuvA expressed in Escherichia coli BL21(DE3) binding to HJ DNA assessed as reduction in RuvA-HJ DNA complex formation at 40 uM and measured after 15 mins using 5'-FAM labelled Holliday junction DNA as substrate by EMSA analysis
[6] = as §1, with “Pseudomonas aeruginosa” for “Bacillus subtilis”
Pseudomonas aeruginosa [7] = test: Antimicrobial activity against Pseudomonas aeruginosa ATCC27853 assessed as colony formation at 50 uM preincubated for 1 hr followed by UV-light irradiation for 5 mins then culture on LB-agar plate for overnight by colony counting method; type: functional, organism-based
Pseudomonas aeruginosa [8] = test: Inhibition of Pseudomonas aeruginosa RuvA expressed in Escherichia coli BL21(DE3) binding to HJ DNA assessed as reduction in RuvA-HJ DNA complex formation at >10 uM and measured after 15 mins using 5'-FAM labelled Holliday junction DNA as substrate by EMSA analysis
Pseudomonas aeruginosa [9] = test: Binding affinity to CM5 chip immobilized Pseudomonas aeruginosa wild type RuvB expressed in Escherichia coli BL21(DE3) assessed as association rate constant (ka) measured for 240 sec by surface plasmon resonance analysis
Pseudomonas aeruginosa [10] = test: Binding affinity to CM5 chip immobilized Pseudomonas aeruginosa wild type RuvB expressed in Escherichia coli BL21(DE3) assessed as dissociation rate constant (kd) measured for 180 sec by surface plasmon resonance analysis
Pseudomonas aeruginosa [11] = test: Binding affinity to CM5 chip immobilized Pseudomonas aeruginosa RuvB D114N mutant expressed in Escherichia coli BL21(DE3) assessed as dissociation rate constant (kd) measured for 180 sec by surface plasmon resonance analysis
[12] = Inhibition of HJ-DNA dependent Pseudomonas aeruginosa RuvB ATPase activity expressed in Escherichia coli BL21(DE3) assessed as inhibition of ATP hydrolysis preincubated with compound followed by ATP addition and measured after 1 hr by Kinase-Glo reagent based luminescence analysis
Pseudomonas aeruginosa [13] = test: Binding affinity to CM5 chip immobilized Pseudomonas aeruginosa RuvB D114N mutant expressed in Escherichia coli BL21(DE3) assessed as association rate constant (ka) measured for 240 sec by surface plasmon resonance analysis
[14] = Binding affinity to CM5 chip immobilized Pseudomonas aeruginosa wild type RuvB expressed in Escherichia coli BL21(DE3) assessed as dissociation constant measured for 180 sec by surface plasmon resonance analysis
[15] = Binding affinity to CM5 chip immobilized Pseudomonas aeruginosa RuvB D114N mutant expressed in Escherichia coli BL21(DE3) assessed as dissociation constant measured for 180 sec by surface plasmon resonance analysis

Row | Structure (SMILES) | IC50 [1] [nM] | inhibition (Pseudomonas aeruginosa [2]) | IC50 [3] [nM] | Activity (Pseudomonas aeruginosa [4]) | inhibition (Pseudomonas aeruginosa [5]) | IC50 [6] [nM] | Activity (Pseudomonas aeruginosa [7]) | inhibition (Pseudomonas aeruginosa [8]) | Ka (Pseudomonas aeruginosa [9]) | Kdiss (Pseudomonas aeruginosa [10]) | Kdiss (Pseudomonas aeruginosa [11]) | IC50 [12] [nM] | Ka (Pseudomonas aeruginosa [13]) | Kd [14] [nM] | Kd [15] [nM]
1 | CC1=C(C)C(=O)C(CCCCCCCCCC[P+](c2ccccc2)(c2ccccc2)c2ccccc2)=CC1=O | 13500 | Active | 7900 | Active | Active | 4640 |  |  |  |  |  |  |  |  | 
2 | COC(=O)[C@]12CCC(C)(C)C[C@H]1[C@H]1C(=O)C=C3[C@@]4(C)C=C(C#N)C(=O)C(C)(C)[C@@H]4CC[C@@]3(C)[C@]1(C)CC2 [BARDOXOLONE METHYL] |  |  |  |  | Active | 377 | Active | Active |  |  |  |  |  |  | 
3 | O=C(O[C@@H]1O[C@@H]2COC(=O)c3cc(O)c(O)c(O)c3-c3c(cc(O)c(O)c3O)C(=O)O[C@H]([C@H]1O)[C@@H]2O)c1cc(O)c(O)c(O)c1 [CORILAGIN] | 840 |  | 1110 |  |  | 398 | Active |  | 1.6 10^4/M/s | 2.2 10^-3/s | 2.4 10^-3/s | 2320 | 5.9 10^3/M/s | 130 | 410

Reference: ChEMBL document CHEMBL5214945, “Identification of small-molecule inhibitors of the DNA repair proteins RuvAB from Pseudomonas aeruginosa” (Bioorg Med Chem, 2022)
